# Results published in patent US20240317752A1, “6-SUBSTITUTED-9H-PURINE DERIVATIVES AND RELATED USES” (Black Diamond Therapeutics, Inc., priority 2021, published 2024).
# Molecular target: T1, BaF3 BRAF-KIAA1549 fusion cells (Homo sapiens, UniProt P15056)
# T1 construct: The BRAF-KIAA1549 fusion mutant was subcloned into pMXs-IRES-Blasticidin (RTV-016, Cell Biolabs, San Diego, CA); fused on or other part: Q9HCM3 (UPF0606 protein KIAA1549)
# Experiment: BaF3 BRAF-KIAA1549 fusion cell proliferation assay (CellTiterGlo)
# Format: cell-based
# Settings: 96 hours incubation, potency code
# Method: Retroviral Production: The BRAF-KIAA1549 fusion mutant was subcloned into pMXs-IRES-Blasticidin (RTV-016, Cell Biolabs, San Diego, CA). Retrovirus was produced by transfection of HEK 293T cells with the retroviral BRAF mutant expression vector pMXs-IRES-Blasticidin (RTV-016, Cell Biolabs), pCMV-Gag-Pol vector and pCMV-VSV-G-Envelope vector. Briefly, HEK 293T cells were plated in Poly-D-lysine coated 6-well plate (2.5×10^5 cells per well) and incubated overnight. The next day, retroviral plasmids (1 μg of BRAF-KIAA fusion mutant, 0.32 μg of pCMV-Gag-Pol and 0.165 μg pCMV-VSV-G) were mixed in 300 μL of Optimem (31985, Life Technologies). The mixture was incubated at room temperature for 5 minutes and then added to Optimem containing transfection reagent Lipofectamine (11668, Invitrogen) and incubated for 20 minutes. The mixture was then added dropwise to HEK 293T cells. The next day the medium was replaced with fresh culture medium and retrovirus was harvested at 24 hours.
# Generation of BRAF-KIAA1549 fusion stable cell line: BaF3 cells were plated in V-bottom 96 well plate (COSTAR #3894) in 80 μL of RPMI/10% FBS and 0.01 ng/ml mouse IL-3; supplemented with 8 μg/mL polybrene (4×10^4 cells/well). Cells were transduced with 20 μL of BRAF-KIAA1549 fusion viral supernatant by centrifuging for 30 minutes at 1000 rpm. Cells were placed in a 37° C. incubator overnight. Next day 100 μL of RPMI/10% FBS and 0.01 ng/ml mouse IL-3 was added. After 24 hours, 100 μL of cells were transferred to a 24 well plate containing 900 μL of RPMI/10% FBS and 15 μg/mL Blasticidin. Contents of the 24 well plate were sampled for cell viability via CellTiterGlo (Promega) over a 2-week period.
# Assay for cell proliferation: BaF3 BRAF-KIAA1549 fusion cells were resuspended at 1.5×10^5c/mL in RPMI containing 10% Heat Inactivated FBS, 1% L-glutamine and dispensed in duplicate ([…]) into 384 well plates. To determine the effect of compound on cell proliferation, BaF3 BRAF-KIAA1549 fusion cells were incubated for 96 hours in the presence of vehicle control (DMSO) or compound at varying concentrations. Inhibition of cell growth was determined by luminescent quantification (Envision by Perkin Elmer) of intracellular ATP content using CellTiterGlo (Promega), according to the protocol provided by the manufacturer. To determine the IC50 values, the vehicle-treated cells were normalized as viable cells and analyzed using the CDD Vault, Collaborative Drug Discovery, Burlingame, CA (the Levenberg-Marquardt algorithm; Levenberg, K., […]; Marquardt, D., 1963).
# Tables A1 and A2 assign each compound a code for potency in the BaF3 BRAF-KIAA1549 fusion cell proliferation assay: A, B, C, or D. According to the code, A represents an IC50 value <20 nM; B represents an IC50 value ≥20 nM and <100 nM; C represents an IC50 value ≥100 nM and <500 nM; and D represents an IC50 value ≥500 nM.
# T1 sequence (P15056 whole entry, change not shown, the tested form may be a part): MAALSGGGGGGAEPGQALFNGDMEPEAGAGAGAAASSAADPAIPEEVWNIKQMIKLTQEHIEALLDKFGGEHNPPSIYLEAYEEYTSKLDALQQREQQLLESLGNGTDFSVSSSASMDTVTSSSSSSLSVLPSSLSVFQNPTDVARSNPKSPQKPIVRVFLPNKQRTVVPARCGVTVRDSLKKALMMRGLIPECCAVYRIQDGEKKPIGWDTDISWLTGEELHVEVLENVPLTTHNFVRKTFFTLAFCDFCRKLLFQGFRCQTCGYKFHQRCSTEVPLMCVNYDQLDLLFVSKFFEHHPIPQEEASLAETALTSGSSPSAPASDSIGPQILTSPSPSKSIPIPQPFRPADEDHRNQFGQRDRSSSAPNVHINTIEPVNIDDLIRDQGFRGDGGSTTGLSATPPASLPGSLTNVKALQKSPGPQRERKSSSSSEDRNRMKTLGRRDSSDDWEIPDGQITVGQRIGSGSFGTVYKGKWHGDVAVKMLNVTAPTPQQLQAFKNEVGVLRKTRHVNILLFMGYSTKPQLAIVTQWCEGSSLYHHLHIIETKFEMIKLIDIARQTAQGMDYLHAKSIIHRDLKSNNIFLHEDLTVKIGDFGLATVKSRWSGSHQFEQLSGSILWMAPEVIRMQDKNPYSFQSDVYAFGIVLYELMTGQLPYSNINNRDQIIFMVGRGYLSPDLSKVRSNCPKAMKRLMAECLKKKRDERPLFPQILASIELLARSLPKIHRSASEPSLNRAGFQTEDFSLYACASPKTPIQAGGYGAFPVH
row,Compound,GI50 [nM]
1,"Cc1ccc(NC(=O)C[C@H]2CCC[C@@H](C(F)(F)F)C2)cc1Nc1ncccc1-c1ncnc2[nH]cnc12 (single isomer, unassigned) [IA-137]",< 20
2,"Cc1ccc(NC(=O)C[C@@H]2CCC[C@H](C(F)(F)F)C2)cc1Nc1ncccc1-c1ncnc2[nH]cnc12 (single isomer, unassigned) [IA-138]",< 20
3,"Cc1ccc(NC(=O)C[C@H]2CCC[C@H](C(F)(F)F)C2)cc1Nc1ncccc1-c1ncnc2[nH]cnc12 (single isomer, unassigned) [IA-139]",< 20
4,"Cc1ccc(NC(=O)C[C@@H]2CCC[C@@H](C(F)(F)F)C2)cc1Nc1ncccc1-c1ncnc2[nH]cnc12 (single isomer, unassigned) [IA-140]",< 20
5,"Cc1ccc(NC(=O)C[C@H]2CCN[C@@H](C(F)(F)F)C2)cc1Nc1ncccc1-c1ncnc2[nH]cnc12 (single isomer, unassigned) [IA-141]",100 to 500
6,"Cc1ccc(NC(=O)C[C@@H]2CCN[C@H](C(F)(F)F)C2)cc1Nc1ncccc1-c1ncnc2[nH]cnc12 (single isomer, unassigned) [IA-142]",100 to 500
7,"Cc1ccc(NC(=O)C[C@H]2CCN[C@H](C(F)(F)F)C2)cc1Nc1ncccc1-c1ncnc2[nH]cnc12 (single isomer, unassigned) [IA-143]",100 to 500
8,"Cc1ccc(NC(=O)C[C@@H]2CCN[C@@H](C(F)(F)F)C2)cc1Nc1ncccc1-c1ncnc2[nH]cnc12 (single isomer, unassigned) [IA-144]",100 to 500
9,"Cc1ccc(NC(=O)C[C@H]2CCO[C@@H](C(F)(F)F)C2)cc1Nc1ncccc1-c1ncnc2[nH]cnc12 (single isomer, unassigned) [IA-146]",20 to 100
10,"Cc1ccc(NC(=O)C[C@H]2CCO[C@H](C(F)(F)F)C2)cc1Nc1ncccc1-c1ncnc2[nH]cnc12 (single isomer, unassigned) [IA-147]",20 to 100
11,"Cc1ccc(NC(=O)C[C@@H]2CCO[C@@H](C(F)(F)F)C2)cc1Nc1ncccc1-c1ncnc2[nH]cnc12 (single isomer, unassigned) [IA-148]",20 to 100
12,"Cc1ccc(NC(=O)C[C@@H]2CCO[C@H](C(F)(F)F)C2)cc1Nc1ncccc1-c1ncnc2[nH]cnc12 (single isomer, unassigned) [IA-149]",20 to 100
13,"Cc1ccc(NC(=O)c2cc(C(F)(F)F)ccn2)cc1Nc1ncccc1-c1ncnc2[nH]cnc12 [Compound I-2, N-(3-(3-(9H-Purin-6-yl)pyridin-2-ylamino)-4-methylphenyl)-4-(trifluoromethyl)picolinamide]",< 20
14,"Cc1ccc(NC(=O)CC2CCC(F)(F)CC2)cc1Nc1ncccc1-c1ncnc2[nH]cnc12 [Compound I-14, N-(3-(3-(9H-purin-6-yl)pyridin-2-ylamino)-4-methylphenyl)-2-(4,4-difluorocyclohexyl)acetamide]",< 20
15,"Cc1ncc(NC(=O)c2cc(C(F)(F)F)ccn2)cc1Nc1ncccc1-c1ncnc2[nH]cnc12 [Compound I-16, N-(5-(3-(9H-purin-6-yl)pyridin-2-ylamino)-6-methylpyridin-3-yl)-4-(trifluoromethyl)picolinamide]",< 20
16,"Cc1ncc(NC(=O)c2ccnc(C(F)(F)F)c2)cc1Nc1ncccc1-c1ncnc2[nH]cnc12 [Compound I-17, N-(5-(3-(9H-purin-6-yl)pyridin-2-ylamino)-6-methylpyridin-3-yl)-2-(trifluoromethyl)isonicotinamide]",20 to 100
17,"Cc1ncc(NC(=O)c2cncc(C(F)(F)F)c2)cc1Nc1ncccc1-c1ncnc2[nH]cnc12 [Compound I-18, N-(5-(3-(9H-purin-6-yl)pyridin-2-ylamino)-6-methylpyridin-3-yl)-5-(trifluoromethyl)nicotinamide]",20 to 100
18,"Cc1ccc(NC(=O)c2ccnc(C3CC3)c2)cc1Nc1ncccc1-c1ncnc2[nH]cnc12 [Compound I-19, N-(3-((3-(9H-purin-6-yl)pyridin-2-yl)amino)-4-methylphenyl)-2-cyclopropylisonicotinamide]",< 20
19,O=C(Nc1ccc(F)c(Nc2ncccc2-c2ncnc3[nH]cnc23)c1)c1cc(C(F)(F)F)ccn1 [Compound I-20],20 to 100
